Test results reported in patent publication US20250375440A1, “COMPOSITION AND METHOD OF TREATING CANCER ASSOCIATED WITH EGFR MUTATION” (BEYONDSPRING PHARMACEUTICALS, INC., priority 2018, published 2025).

System: NCI-H1975 Human Lung Cancer Xenograft
Experiment: subcutaneous NCI-H1975 Human Lung Cancer Xenograft Model in Balb/c Nude Mice, tumor size
Type: in vivo, Mus Musculus (Balb/c nude mice)
Details: single agent
Procedure: The therapeutic efficacy of Osimertinib and Plinabulin were tested in vivo. The two drugs were tested as a single agent and in combination in the treatment of subcutaneous NCI-H1975 Human Lung Cancer Xenograft Model in Balb/c Nude Mice. The administration of the test articles and the animal numbers in each study group were shown in the following experimental design table 1. [table] Study endpoints: The major endpoints of the study include the followings: Tumor growth inhibition (TGI): TGI % was an indication of antitumor effectiveness, and expressed as: TGI (%)=100×(1-T/C). T and C were the mean tumor volume (or weight) of the treated and control groups, respectively, on a given day. The test uses 6-8 weeks female mice (species: Mus Musculus, Strain: Balb/c nude). The average body weight of the mice was 18-22 g. A total of 84 mice (60 plus 40% spare) were used. The animals were housed in individual ventilated cages (up to 5 mice per cage) under the following conditions: Temperature: 20˜26° C.; Humidity: 40-70%; Light cycle: 7:00 am-19:00 pm light and 19:00 pm-7:00 am (next day) darkness; Polysulfone IVC cage: size of 325 mm×210 mm×180 mm; Bedding material: corn cob; Diet: Mouse diet, Co60 irradiation sterilized dry granule food. Animals have free access during the entire study period; Water: Reverse osmosis (RO) water, autoclaved before using. […] The cells growing in an exponential growth phase were harvested and counted for tumor inoculation. […] Group assignment: Before grouping and treatment, all animals were weighed and the tumor volumes were measured using a caliper. […] During routine monitoring, the animals were checked for any effects of tumor growth and treatments on normal behavior such as mobility, visual estimation of food and water consumption, body weight gain/loss (body weights were measured twice per week), eye/hair matting and any other abnormal effect. […]

| Structure (SMILES) | tumor size change after tumor inoculation (Group 2, osimertinib 2.5 mg/kg p.o. QD x 5/wk) | tumor size change after tumor inoculation (Group 3, plinabulin 7.5 mg/kg i.p. BIW 2 wks) | tumor size change after tumor inoculation (Group 4, plinabulin 2.5 mg/kg i.p. BIW 2 wks) |
| --- | --- | --- | --- |
| C=CC(=O)Nc1cc(Nc2nccc(-c3cn(C)c4ccccc34)n2)c(OC)cc1N(C)CCN(C)C [osimertinib, reference compound] | control over the tumor size and slight increase in tumor size after the animals were tested for 15 days | – | – |
| CC(C)(C)c1[nH]cnc1/C=c1\[nH]c(=O)/c(=C/c2ccccc2)[nH]c1=O [plinabulin, (3Z,6Z)-3-Benzylidene-6-{[5-(2-methyl-2-propanyl)-1H-imidazol-4-yl]methylene}-2,5-piperazinedione] | – | tumor size increases | tumor size increases |
